Measurements taken from patent publication US20210180023A1, “CARDIAC REPAIR BY REPROGRAMMING OF ADULT CARDIAC FIBROBLASTS INTO CARDIOMYOCYTES” (The Board of Regents of the University of Texas System, priority 2017, published 2021).

Test system: adult tail-tip fibroblasts (TTFs) from αMHC-GFP mice
Assay: Human retroviral ORF cDNA library screen for AGHMT-mediated cardiac reprogramming (high-throughput imaging of αMHC-GFP and cTnT)
Assay type: cell-based, mouse
Conditions: individual cDNA expressed together with 5F (AGHMT), 9 days, Z-score ≥2 activator, ≤−2 inhibitor
Source text: Isolation of mouse tail-tip fibroblast. For isolation of adult mouse tail-tip fibroblasts, tails were cut from 8-12 weeks old adult wild-type or αMHC-GFP mouse and were minced into […] with razor blades after peeling off the superficial dermis. The minced tails were placed in fibroblast growth medium (DMEM supplemented with 10% FBS and 1% (vol/vol) penicillin/streptomycin). Tail-tip fibroblasts migrated out from the explants within 1 week and were passaged one time before use.
Construction of human retroviral ORFs library. Gateway-compatible Human ORFs pEntry vectors were purchased from Thermo Fisher Scientific. Gateway-compatible retroviral destination vector, pMXs-gw, was a gift from Shinya Yamanaka (Addgene plasmid #18656) (Takahashi, 2006). The inventors transferred each ORF individually into pMXs-gw by performing site-specific LR recombination using Gateway LR Clonase II Enzyme Mix kit (Thermo Fisher Scientific).
Retroviruses production, cellular reprogramming and treatment. For retroviruses production, Platinum E cells were seeded into culture dishes (1×10^5 cells/cm2) one day before transfection in DMEM supplemented with 10% FBS and 1% penicillin/streptomycin. Cells reached ˜80% confluency on the day of transfection. DNA plasmids were transfected into Platinum E cells using FuGENE 6 transfection reagent. Twenty-four hours after transfection, wild type or αMHC-GFP tail-tip fibroblasts were seeded into culture dishes or plates that were precoated with SureCoat (Cellutron) for one hour at a density of 6×10^4/cm^2. Forty-eight hours after transfection, polybrene was added to viral medium that was filtered through a 0.45-μm filter at a concentration of […]. The mixture replaced the growth medium in the cell culture plate with tail-tip fibroblasts. The viral infection was serially repeated twice. Twenty-four hours after the second infection, the viral medium was replaced with induction medium, composed of DMEM/199 (4:1), 10% conditioned medium obtained from neonatal rat cardiomyocyte culture, 10% FBS, 5% horse serum, 1% penicillin/streptomycin, 1% nonessential amino acids, 1% essential amino acids, 1% B-27, 1% insulin-selenium-transferrin, 1% vitamin mixture, and 1% sodium pyruvate (Invitrogen). Small molecule treatments were used throughout the reprogramming process […] (Sigma).
Immunocytochemistry. For immunocytochemistry, cells were fixed in 4% paraformaldehyde for 15 min and permeabilized with 0.1% Triton-X in room temperature. Cells were washed with PBS for three times followed by blocking with 10% goat serum for 1 hr. Cells then were incubated with mouse monoclonal anti-cardiac Troponin T (cTnT) antibody (Thermo Scientific) at 1:500 dilutions and rabbit anti-GFP antibody (Thermo Scientific) at 1:500 dilutions in 5% Goat serum for 1 hr. After washing with PBS three times, Cells then were incubated with donkey anti-mouse alexa fluor 647 (Invitrogen) at 1:500 and goat anti-rabbit Alexa fluor 488 at 1:500 (Invitrogen).
Identification of activators and inhibitors of cardiac reprogramming in adult fibroblasts. The inventors' previously optimized cardiac reprogramming protocol with five factors (AGHMT, also called 5F) was able to reprogram ˜3% efficiency of adult TTFs to iCMs as measured by activation of a cardiac-specific αMHC-GFP transgene and cardiac troponin T (cTnT) immunostaining (Zhou et al., 2015). To identify additional regulators of cardiac reprogramming, the inventors created a retroviral expression library consisting of 1,052 open reading frame (ORF) cDNAs representing 786 human transcription factor, cytokine, epigenetic regulator and nuclear receptor genes (Table 51). The inventors screened this expression library for activators and inhibitors of cardiac reprogramming by expressing individual cDNAs together with 5F in isolated TTFs from αMHC-GFP mice, as schematized in FIG. 1A. […]

Substance: Zinc finger protein 281 [ZNF281]
- cTnT Z-score: 7.0
- αMHC Z-score (αMHC-GFP): 2.9
